Values after ≈ are worked out from the molar mass of the structure shown.
The compounds below were run on E. coli (assay: Bacterial susceptibility testing, MIC by broth microdilution (CLSI)). Details: Escherichia coli, read-out: E. coli MIC, broth microdilution, 35° C., 18-24 h.

**Q.** Which MIC does the source give for `O=c1[nH]cnc(CC(CO)c2ccc(C#Cc3ccc(CN[C@H]4CCOC4)cc3)cc2)c1O` (mixture of isomers) [Compound 8] here?
**A.** < 1 µg/mL

**Q.** Which MIC does the source give for `O=c1[nH]cnc(CC(CO)c2ccc(C#Cc3ccc(CN[C@@H]4CCOC4)cc3)cc2)c1O` (mixture of isomers) [Compound 11] here?
**A.** < 1 µg/mL

**Q.** How did the MIC turn out when `O=C(NCCF)C(Cc1nc[nH]c(=O)c1O)c1ccc(C#Cc2ccc(CN[C@H]3CCOC3)cc2)cc1` (mixture of isomers) [Compound 30] was run?
**A.** 1 to 8 µg/mL

**Q.** For `CC(CO)(Cc1nc[nH]c(=O)c1O)c1ccc(C#Cc2ccc(CN[C@H]3CCOC3)cc2)cc1` (mixture of isomers) [Compound 32], which MIC is on record?
**A.** < 1 µg/mL

**Q.** How did the MIC turn out when `O=c1[nH]cnc(CC(CO)c2ccc(C#Cc3ccc(CCN[C@H]4CCOC4)cc3)cc2)c1O` (mixture of isomers) [Compound 43] was run?
**A.** < 1 µg/mL

**Q.** With `O=C(CO)N1CC[C@@H](NCc2ccc(C#Cc3ccc(C(CO)Cc4nc[nH]c(=O)c4O)cc3)cc2)C1` (mixture of isomers) [Compound 44] as the compound, how does the MIC read?
**A.** < 1 µg/mL

**Q.** Which MIC does the source give for `O=c1[nH]cnc(CC(CO)c2ccc(C#Cc3ccc(CN[C@@H]4CCNC4)cc3)cc2)c1O` (mixture of isomers) [Compound 62] here?
**A.** 1 to 8 µg/mL

**Q.** Which MIC does the source give for `COC1CN(Cc2ccc(C#Cc3ccc(C(CN[C@@H](C)CF)Cc4nc[nH]c(=O)c4O)cc3)cc2)C1` (mixture of isomers) [Compound 66] here?
**A.** < 1 µg/mL

**Q.** With `C[C@@H](CF)NCC(Cc1nc[nH]c(=O)c1O)c1ccc(C#Cc2ccc(CN3CC4COCC4C3)cc2)cc1` (mixture of isomers) [Compound 84] as the compound, how does the MIC read?
**A.** < 1 µg/mL

**Q.** With `CO[C@@H]1CCN(Cc2ccc(C#Cc3ccc(C(CN[C@@H](C)CF)Cc4nc[nH]c(=O)c4O)cc3)cc2)C1` (mixture of isomers) [Compound 86] as the compound, how does the MIC read?
**A.** < 1 µg/mL

**Q.** With `CO[C@H]1CCN(Cc2ccc(C#Cc3ccc(C(CN[C@@H](C)CF)Cc4nc[nH]c(=O)c4O)cc3)cc2)C1` (mixture of isomers) [Compound 89] as the compound, how does the MIC read?
**A.** < 1 µg/mL

**Q.** `C[C@@H](CF)NCC(Cc1nc[nH]c(=O)c1O)c1ccc(C#Cc2ccc(CN3CC[C@@H](C#N)C3)cc2)cc1` (mixture of isomers) [Compound 91] was tested. Which MIC did it give?
**A.** < 1 µg/mL

**Q.** For `C[C@@H](CF)NCC(Cc1nc[nH]c(=O)c1O)c1ccc(C#Cc2ccc(CN3CC[C@H](C#N)C3)cc2)cc1` (mixture of isomers) [Compound 92], which MIC is on record?
**A.** < 1 µg/mL

**Q.** Which MIC does the source give for `C[C@@H](CF)NCC(Cc1nc[nH]c(=O)c1O)c1ccc(C#Cc2ccc(CNC3COC3)cc2)cc1` (mixture of isomers) [Compound 94] here?
**A.** < 1 µg/mL

**Q.** How did the MIC turn out when `C[C@@H](CF)NCC(Cc1nc[nH]c(=O)c1O)c1ccc(C#Cc2ccc(CN3CC(CC#N)C3)cc2)cc1` (mixture of isomers) [Compound 95] was run?
**A.** < 1 µg/mL

**Q.** How did the MIC turn out when `C[C@@H](CF)NCC(Cc1nc[nH]c(=O)c1O)c1ccc(C#Cc2ccc(CN[C@@H]3CCOC3)cc2)cc1` (mixture of isomers) [Compound 108] was run?
**A.** < 1 µg/mL

**Q.** Which MIC does the source give for `C[C@@H](CF)NCC(Cc1nc[nH]c(=O)c1O)c1ccc(C#Cc2ccc(CN[C@H]3CCOC3)cc2)cc1` (mixture of isomers) [Compound 110] here?
**A.** < 1 µg/mL

**Q.** With `N#C[C@H]1CCN(Cc2ccc(C#Cc3ccc(C(CNCC(F)F)Cc4nc[nH]c(=O)c4O)cc3)cc2)C1` (mixture of isomers) [Compound 123] as the compound, how does the MIC read?
**A.** < 1 µg/mL

**Q.** For `C[C@@H](CF)NCC(Cc1nc[nH]c(=O)c1O)c1ccc(C#Cc2ccc(CN3CC4(COC4)C3)cc2)cc1` (mixture of isomers) [Compound 124], which MIC is on record?
**A.** 1 to 8 µg/mL

**Q.** With `CO[C@@H]1CCN(Cc2ccc(C#Cc3ccc(C(CNCC(C)Cl)Cc4nc[nH]c(=O)c4O)cc3)cc2)C1` (mixture of isomers) [Compound 125] as the compound, how does the MIC read?
**A.** 1 to 8 µg/mL

**Q.** With `C[C@@H](CF)NCC(Cc1nc[nH]c(=O)c1O)c1ccc(C#Cc2ccc(CN3CC(C4COC4)C3)cc2)cc1` (mixture of isomers) [Compound 126] as the compound, how does the MIC read?
**A.** 1 to 8 µg/mL

**Q.** Which MIC does the source give for `C[C@@H](CF)NCC(Cc1nc[nH]c(=O)c1O)c1ccc(C#Cc2ccc(CN3CC4(CCOC4)C3)cc2)cc1` (mixture of isomers) [Compound 127] here?
**A.** 1 to 8 µg/mL

**Q.** `C[C@@H](CF)NCC(Cc1nc[nH]c(=O)c1O)c1ccc(C#Cc2ccc(CN3CC4(CCO4)C3)cc2)cc1` (mixture of isomers) [Compound 132] was tested. Which MIC did it give?
**A.** < 1 µg/mL

**Q.** With `COC1CN(Cc2ccc(C#Cc3ccc(C(C)(CN[C@@H](C)CF)Cc4nc[nH]c(=O)c4O)cc3)cc2)C1` (mixture of isomers) [Compound 143] as the compound, how does the MIC read?
**A.** < 1 µg/mL

**Q.** For `C[C@@H](CO)NCC(Cc1nc[nH]c(=O)c1O)c1ccc(C#Cc2ccc(CN[C@H]3CCOC3)cc2)cc1` (mixture of isomers) [Compound 144], which MIC is on record?
**A.** 1 to 8 µg/mL

**Q.** Which MIC does the source give for `NC[C@@H]1CCCN1Cc1ccc(C#Cc2ccc(C(CO)Cc3nc[nH]c(=O)c3O)cc2)cc1` (mixture of isomers) [Compound 145] here?
**A.** 1 to 8 µg/mL

**Q.** `NC[C@H]1CCCN1Cc1ccc(C#Cc2ccc(C(CO)Cc3nc[nH]c(=O)c3O)cc2)cc1` (mixture of isomers) [Compound 148] was tested. Which MIC did it give?
**A.** 1 to 8 µg/mL

**Q.** `N=[S@]1(=O)CC[C@@H](NCc2ccc(C#Cc3ccc(C(CO)Cc4nc[nH]c(=O)c4O)cc3)cc2)C1` (mixture of isomers) [Compound 150] was tested. Which MIC did it give?
**A.** 1 to 8 µg/mL

**Q.** `N=[S@@]1(=O)CC[C@H](NCc2ccc(C#Cc3ccc(C(CO)Cc4nc[nH]c(=O)c4O)cc3)cc2)C1` (mixture of isomers) [Compound 151] was tested. Which MIC did it give?
**A.** 1 to 8 µg/mL

**Q.** How did the MIC turn out when `O=C(CO)N(Cc1ccc(C#Cc2ccc(C(CO)Cc3nc[nH]c(=O)c3O)cc2)cc1)[C@@H]1CCNC1` (mixture of isomers) [Compound 154] was run?
**A.** 8 to 32 µg/mL

**Q.** Which MIC does the source give for `O=c1[nH]cnc(CC(CO)c2ccc(C#Cc3ccc(CN[C@@H]4CCN(CCO)C4)cc3)cc2)c1O` (mixture of isomers) [Compound 155] here?
**A.** 1 to 8 µg/mL

**Q.** `O=C(O)CN1CC[C@@H](NCc2ccc(C#Cc3ccc(C(CO)Cc4nc[nH]c(=O)c4O)cc3)cc2)C1` (mixture of isomers) [Compound 156] was tested. Which MIC did it give?
**A.** > 32 µg/mL

**Q.** With `O=C(CO)NC[C@@H]1CCCN1Cc1ccc(C#Cc2ccc(C(CO)Cc3nc[nH]c(=O)c3O)cc2)cc1` (mixture of isomers) [Compound 158] as the compound, how does the MIC read?
**A.** 1 to 8 µg/mL

**Q.** For `O=c1[nH]cnc(CC(CN[C@H]2CCOC2)c2ccc(C#Cc3ccc(CN4CCOCC4)cc3)cc2)c1O` (mixture of isomers) [Compound 166], which MIC is on record?
**A.** < 1 µg/mL

**Q.** With `C[C@@H](CO)NCC(Cc1nc[nH]c(=O)c1O)c1ccc(C#Cc2ccc(CN3CCOCC3)cc2)cc1` (mixture of isomers) [Compound 167] as the compound, how does the MIC read?
**A.** < 1 µg/mL

**Q.** For `NC(Cc1nc[nH]c(=O)c1O)c1ccc(C#Cc2ccc(CN[C@@H]3CCOC3)cc2)cc1` (mixture of isomers) [Compound 173], which MIC is on record?
**A.** < 1 µg/mL

**Q.** `O=c1[nH]cnc(CC(CO)c2ccc(/C=C/c3ccc(CN[C@H]4CCOC4)cc3)cc2)c1O` (mixture of isomers) [Compound 198] was tested. Which MIC did it give?
**A.** 8 to 32 µg/mL

**Q.** Which MIC does the source give for `CC(=O)N1CC[C@@H](NCc2ccc(C#Cc3ccc(C(CO)Cc4nc[nH]c(=O)c4O)cc3)cc2)C1` (mixture of isomers) [Compound 232] here?
**A.** < 1 µg/mL

**Q.** Which MIC does the source give for `O=C(N[C@@H]1CCN(Cc2ccc(C#Cc3ccc(C(CO)Cc4nc[nH]c(=O)c4O)cc3)cc2)C1)C1CC1` (mixture of isomers) [Compound 256] here?
**A.** < 1 µg/mL

**Q.** With `O=C(CO)N[C@@H]1CCN(Cc2ccc(C#Cc3ccc(C(CO)Cc4nc[nH]c(=O)c4O)cc3)cc2)C1` (mixture of isomers) [Compound 257] as the compound, how does the MIC read?
**A.** 1 to 8 µg/mL

**Q.** How did the MIC turn out when `CN(Cc1ccc(C#Cc2ccc(C(CO)Cc3nc[nH]c(=O)c3O)cc2)cc1)[C@@H]1CCNC1` (mixture of isomers) [Compound 260] was run?
**A.** 1 to 8 µg/mL

**Q.** How did the MIC turn out when `CN1CC[C@@H](NCc2ccc(C#Cc3ccc(C(CO)Cc4nc[nH]c(=O)c4O)cc3)cc2)C1` (mixture of isomers) [Compound 261] was run?
**A.** 1 to 8 µg/mL

**Q.** For `NCC(=O)N1CC[C@@H](NCc2ccc(C#Cc3ccc(C(CO)Cc4nc[nH]c(=O)c4O)cc3)cc2)C1` (mixture of isomers) [Compound 262], which MIC is on record?
**A.** 8 to 32 µg/mL

**Q.** Which MIC does the source give for `CNC(Cc1nc[nH]c(=O)c1O)c1ccc(C#Cc2ccc(CN[C@@H]3CCOC3)cc2)cc1` (mixture of isomers) [Compound 265] here?
**A.** < 1 µg/mL

**Q.** Which MIC does the source give for `O=c1[nH]cnc(CC(O)c2ccc(C#Cc3ccc(CN[C@@H]4CCOC4)cc3)cc2)c1O` (mixture of isomers) [Compound 271] here?
**A.** < 1 µg/mL

**Q.** For `N[C@@H]1CCN(Cc2ccc(C#Cc3ccc(C(CO)Cc4nc[nH]c(=O)c4O)cc3)cc2)C1` (mixture of isomers) [Compound 292], which MIC is on record?
**A.** 1 to 8 µg/mL

**Q.** How did the MIC turn out when `C[C@@H](CF)NCC(Cc1nc[nH]c(=O)c1O)c1ccc(C#Cc2ccc(CCN3CCOCC3)cc2)cc1` (mixture of isomers) [Compound 294] was run?
**A.** < 1 µg/mL

**Q.** Which MIC does the source give for `O=c1[nH]cnc(CC(CO)c2ccc(C#Cc3ccc(CN[C@H]4CCS(=O)(=O)C4)cc3)cc2)c1O` (single isomer, unassigned) [Compound 39] here?
**A.** < 1 µg/mL

**Q.** `O=c1[nH]cnc(CC(CO)c2ccc(C#Cc3ccc(CN[C@@H]4CCS(=O)(=O)C4)cc3)cc2)c1O` (single isomer, unassigned) [Compound 40] was tested. Which MIC did it give?
**A.** 1 to 8 µg/mL (≈ 2.03 to 16.2 µM)

**Q.** With `COC1CN(Cc2ccc(C#Cc3ccc(C(CN[C@H](C)CF)Cc4nc[nH]c(=O)c4O)cc3)cc2)C1` (single isomer, unassigned) [Compound 69] as the compound, how does the MIC read?
**A.** < 1 µg/mL

Same assay, conditions: broth microdilution, 35° C., 18-24 h

**Q.** For `CO[C@@H]1CCN(Cc2ccc(C#Cc3ccc(C(CNCC(C)F)Cc4nc[nH]c(=O)c4O)cc3)cc2)C1` (mixture of isomers) [Compound 135], which “E. coli MIC” value is on record?
**A.** B (B: >1 μg/mL to ≤8.0 μg/mL)

**Q.** Which “E. coli MIC” value does the source give for `O=c1[nH]cnc(CC(CO)c2ccc(C#Cc3ccc(CN[C@H]4CCOC4)cc3)cc2)c1O` (single isomer, unassigned) [Compound 9] here?
**A.** B (B: >1 μg/mL to ≤8.0 μg/mL)

**Q.** `O=c1[nH]cnc(CC(CO)c2ccc(C#Cc3ccc(CN[C@H]4CCOC4)cc3)cc2)c1O` (single isomer, unassigned) [Compound 10] was tested. Which “E. coli MIC” value did it give?
**A.** A (A: ≤1 μg/mL)

**Q.** Which “E. coli MIC” value does the source give for `O=C(CO)N1CC[C@@H](NCc2ccc(C#Cc3ccc(C(CO)Cc4nc[nH]c(=O)c4O)cc3)cc2)C1` (single isomer, unassigned) [Compound 45] here?
**A.** B (B: >1 μg/mL to ≤8.0 μg/mL)

**Q.** With `O=C(CO)N1CC[C@@H](NCc2ccc(C#Cc3ccc(C(CO)Cc4nc[nH]c(=O)c4O)cc3)cc2)C1` (single isomer, unassigned) [Compound 46] as the compound, how does the “E. coli MIC” value read?
**A.** A (A: ≤1 μg/mL)

**Q.** Which “E. coli MIC” value does the source give for `CO[C@@H]1CCN(Cc2ccc(C#Cc3ccc(C(CN[C@@H](C)CF)Cc4nc[nH]c(=O)c4O)cc3)cc2)C1` (single isomer, unassigned) [Compound 87] here?
**A.** B (B: >1 μg/mL to ≤8.0 μg/mL)
